Test results: paper PMC7460883, “Dual Substrate Specificity of the Rutinosidase from Aspergillus niger and the Role of Its Substrate Tunnel” (International Journal of Molecular Sciences, 2020)

Biological target: T1, AnRut (recombinant rutinosidase from Aspergillus niger) (Aspergillus niger, UniProt A0A6B9UJ04)
T1 construct: vector pPICZalphaA-RUT, secreted as fusion product by Pichia pastoris KM71H; crude culture medium, ca 66 kDa glycosylated (45 kDa deglycosylated), dimer
T1 sequence (A0A6B9UJ04 20-386): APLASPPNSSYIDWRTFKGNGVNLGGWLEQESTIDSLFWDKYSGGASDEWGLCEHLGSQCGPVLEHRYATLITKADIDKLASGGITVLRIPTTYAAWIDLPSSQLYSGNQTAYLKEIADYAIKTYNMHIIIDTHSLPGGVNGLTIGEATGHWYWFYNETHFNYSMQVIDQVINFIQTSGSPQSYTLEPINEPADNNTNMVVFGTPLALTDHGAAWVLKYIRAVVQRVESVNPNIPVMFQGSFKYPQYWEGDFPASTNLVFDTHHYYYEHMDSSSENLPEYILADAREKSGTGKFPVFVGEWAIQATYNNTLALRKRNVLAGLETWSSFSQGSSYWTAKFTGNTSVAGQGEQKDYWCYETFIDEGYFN
Assay: transglycosylation (glycosyl donor), TLC / product isolation
Type: biochemical
Details: pH 3.5, 36 °C; crude culture medium with secreted recombinant enzyme; suspended substrate; acceptors 3-9

| Structure (SMILES) | transglycosylation (glycosyl donor), TLC / product isolation |
| --- | --- |
| C[C@@H]1O[C@@H](OC[C@H]2O[C@@H](Oc3c(-c4ccc(O)c(O)c4)oc4cc(O)cc(O)c4c3=O)[C@H](O)[C@@H](O)[C@@H]2O)[C@H](O)[C@H](O)[C@H]1O [compound 1, rutin] | both AnRut activities, i.e., rutinosidase (with rutin donor) and glucosidase (with isoquercitrin donor) |
| O=c1c(O[C@@H]2O[C@H](CO)[C@@H](O)[C@H](O)[C@H]2O)c(-c2ccc(O)c(O)c2)oc2cc(O)cc(O)c12 [compound 2, isoquercitrin] | both AnRut activities, i.e., rutinosidase (with rutin donor) and glucosidase (with isoquercitrin donor) |
